# Measured values: patent US20120258945A1, “Association Between Ferroquine and an Artemisinine Derivative for Treating Malaria” (priority 2005, published 2012)
# Key:
# [1] = tested on: Plasmodium vinckei vinckei; assay: In vivo activity in mice infected with Plasmodium vinckei vinckei: parasitaemia at D4 after 4 days of oral treatment
# Text: Female “Swiss” mice, aged eight weeks and one day, are inoculated with parasites of Plasmodium vinckei vinckei type (Rodhain, 1952). The mice are acclimatized beforehand for two weeks. The mice are given food and drink ad libitum.
# The Plasmodium vinckei vinckei strain is maintained by weekly infection in the mouse with 10^7 parasitized erythrocytes suspended in a phosphate buffered saline (0.9%).
# (§1) This administration is repeated on the following three days (D1 to D3) (Peter, 1987). When the two products are administered in combination, the artesunate is administered first, the ferroquine is administered second, 45 minutes later. On the fourth day, a blood smear is taken from the tail of the mouse. The sample is fixed on a plate. The number of parasitized blood cells is counted under a microscope. The parasitaemia is expressed as percentage of infected erythrocytes present in the sample on a sample of 1000 cells. Six or seven mice are used per dose.
# The IC50 is defined as the concentration in mg/kg/day which inhibits the blood parasitaemia by 50% at the fourth day (D4) after infection (D0) and four days of treatment (D0,D1,D2,D3). 0% inhibition corresponds to the mean of the parasitaemias observed in the untreated infected mice. […]
# The IC50 of ferroquine is determined after administration of concentrations of between 1 and 10 mg/kg/day. […]
# [2] = tested on: Plasmodium vinckei vinckei; assay: Mortality / survival and curative dose in mice infected with Plasmodium vinckei vinckei; type: in vivo; conditions: oral, 4 days of treatment, compounds administered separately
# Experimental: as §1, with “On the first day of treatment (D0), one hour after infection (10^7 parasitized erythrocytes suspended in a phosphate buffered saline (0.9%)), the animal is administered, orally, as appropriate, with ferroquine, with artesunate or with a mixture of the two active ingredients. This” for “This”
# Each day, from day 5 after infection, the number of dead mice is counted so as to determine the percentage mortality (number of mice dead relative to the number of mice of the batch considered). The curative dose is the first dose at which all the mice of the batch survive.
smiles,measurement,setting,value
C[C@@H]1CC[C@H]2[C@@H](C)C(OC(=O)CCC(=O)[O-])O[C@@H]3O[C@]4(C)CC[C@@H]1C32OO4.[Na+] (stereo partly drawn) [artesunate],IC50 (dose which inhibits the blood parasitaemia by 50% at D4),"[1]; 4 days of treatment (D0-D3), parasitaemia at D4, compounds administered separately, linear interpolation of dose-response curve",2.79 mg/kg/day
same,"Parasitaemia (as %), mean","[1]; artesunate 6 mg/kg/day alone (ferroquine 0), 4 days, infected erythrocytes at fourth day after infection",7.1%
same,curative dose (first dose at which all the mice of the batch survive),[2],greater than 15 mg/kg/day
